Data on three molecules can be found in paper PMC9962302, “The Mechanism of Metal-Containing Formate Dehydrogenases Revisited: The Formation of Bicarbonate as Product Intermediate Provides Evidence for an Oxygen Atom Transfer Mechanism” (Molecules, 2023).

Series [1] concerns the target T1, R. capsulatus FDH (RcFDH), metal-containing formate dehydrogenase (Rhodobacter capsulatus, UniProt D5AQH0).
T1 construct: gene fdhA
Description: inhibition of the back reaction (CO2 reduction) at […] CS2, […] nm. Type of series: biochemical.

Series [2] has as its target T1, R. capsulatus FDH (RcFDH), metal-containing formate dehydrogenase. Description: steady-state inhibition kinetics of formate oxidation, benzyl viologen as electron acceptor, […] nm. In kind it is biochemical.
Substrate in series [3]: O=CO
Briefly: purified protein. In kind it is biochemical, Rhodobacter capsulatus. Conditions: bis-MGD molybdenum cofactor, [4Fe-4S] cluster; NAD+ active site, molybdenum centre.

Substrate in series [4]: O=CS
Briefly: purified protein. In kind it is biochemical, Rhodobacter capsulatus. The settings on record: bis-MGD molybdenum cofactor, [4Fe-4S] cluster; NAD+.

T1 sequence (D5AQH1 1-500 partner, one chain of several): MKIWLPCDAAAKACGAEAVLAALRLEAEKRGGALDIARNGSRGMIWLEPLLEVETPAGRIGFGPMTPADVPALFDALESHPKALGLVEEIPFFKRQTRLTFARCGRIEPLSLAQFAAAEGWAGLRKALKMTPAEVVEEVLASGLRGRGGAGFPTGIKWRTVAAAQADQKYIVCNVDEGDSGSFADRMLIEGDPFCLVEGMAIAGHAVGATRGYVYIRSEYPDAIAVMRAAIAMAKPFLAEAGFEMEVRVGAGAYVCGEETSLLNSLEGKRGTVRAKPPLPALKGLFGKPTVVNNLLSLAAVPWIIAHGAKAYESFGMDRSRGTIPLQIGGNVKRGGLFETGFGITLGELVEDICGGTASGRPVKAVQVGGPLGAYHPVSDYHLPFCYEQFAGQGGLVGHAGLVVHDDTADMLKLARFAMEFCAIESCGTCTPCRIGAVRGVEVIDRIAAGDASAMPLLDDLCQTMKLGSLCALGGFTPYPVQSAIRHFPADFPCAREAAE
T1 sequence (D5AQH2 1-150 partner, one chain of several): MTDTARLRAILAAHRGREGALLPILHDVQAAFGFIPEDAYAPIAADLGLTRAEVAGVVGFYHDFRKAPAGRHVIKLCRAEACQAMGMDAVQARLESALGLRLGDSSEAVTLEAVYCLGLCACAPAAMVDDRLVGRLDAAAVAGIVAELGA
T1 sequence (D5AQG8 1-71 partner, one chain of several): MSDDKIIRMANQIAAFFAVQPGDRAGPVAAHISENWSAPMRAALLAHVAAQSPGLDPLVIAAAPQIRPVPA

In the case of `S=C=S` [carbon disulfide], the “inhibition of the back reaction (CO2 reduction) at 150 mM CS2, 340 nm” value in series [1] was “interfere with the active site and/or the hydrophobic channel and, therefore, inhibits the reduction in CO2 when present”. On to `S=CS` [dithioformate], for which, in series [2], the Ki amounted to 7.5 mM.

B1: R. capsulatus FDH (RcFDH), metal-containing formate dehydrogenase (Rhodobacter capsulatus SB 1003) (protein)
chain: MKDLIIPPLDWTQDMGTPKREGAPVHLTIDGVEVTVPAGTSVLRAAAEAGISIPKLCATDNVEPVGSCRLCMVEIEGMRGTPTSCTTPVAPGMRVHTQTPQLQKLRRGVMELYISDHPLDCLTCAANGDCELQDMAGAVGLREVRYQAKDTHFARRDATGPNPRYIPKDNSNPYFSYDPAKCIVCMRCVRACEEVQGTFALTVMGRGFDARISPAAPDFLSSDCVSCGACVQACPTATLVEKSVERIGTPERKVVTTCAYCGVGCSFEAHMLGDQLVRMVPWKGGAANRGHSCVKGRFAYGYATHQDRILKPMIRDKITDPWREVNWTEALDFTATRLRALRDSHGADALGVITSSRCTNEETYLVQKLARAVFGTNNTDTCARVCHSPTGYGLKQTFGTSAGTQDFDSVEETDLALVIGANPTDGHPVFASRLRKRLRAGAKLIVVDPRRIDLLNTPHRGEAWHLQLKPGTNVAVMTAMAHVIVTEQIFDKRFIGDRCDWDEWADYAEFVANPEYAPEAVESLTGVPAGLLRQAARAYAAAPNAAIYYGLGVTEHSQGSTTVIAIANLAMMTGNIGRPGVGVNPLRGQNNVQGSCDMGSFPHEFPGYRHVSDDATRGLFERTWGVTLSSEPGLRIPNMLDAAVEGRFKALYVQGEDILQSDPDTRHVSAGLAAMDLVIVHDLFLNETANYAHVFLPGSTFLEKDGTFTNAERRINRVRRVMAPKAGFADWEVTQMLANALGAGWHYTHPSEIMAEIAATTPGFAAVTYEMLDARGSVQWPCNEKAPEGSPIMHVEGFVRGKGRFIRTAYLPTDEKTGPRFPLLLTTGRILSQYNVGAQTRRTENTVWHGEDRLEIHPTDAETRGIRDGDWVRLASRAGETTLRATVTDRVSPGVVYTTFHHPDTQANVVTTDTSDWATNCPEYKVTAVQVAASNGPSDWQQDYAAQAAAARRIEAAE
For B1, the Km in the series “purified protein [3]” was found to be 145 ± 25 µM; in the series “purified protein [4]”, 3300 ± 240 µM.
